In ChEMBL document CHEMBL4359854, “Repurposing mosloflavone/5,6,7-trimethoxyflavone-resveratrol hybrids: Discovery of novel p38-α MAPK inhibitors as potent interceptors of macrophage-dependent production of proinflammatory mediators” (Eur J Med Chem, 2019):
Activity calls are given as the source filed them. No cut-off for these calls is given here.

Legend:
RAW264.7 [1] = assay: Effect on NO production in mouse RAW264.7 cells assessed as inhibition of NO production at 2 to 5 uM incubated for 24 hrs by Griess reagent-based assay; assay type: cell-based; conditions: raw264.7, 24 h
RAW264.7 [2] = assay: Anti-inflammatory activity in mouse RAW264.7 cells assessed as inhibition of LPS-induced NO production at 0.5 uM preincubated for 1 hr followed by LPS addition and measured after 24 hrs by Griess reagent-based assay; assay type: functional, cell-based
[3] = Cytotoxicity against LPS-induced mouse RAW264.7 cells assessed as cell viability at 1 uM incubated for 24 hrs by MTT assay relative to control; assay type: cell-based; conditions: LPS-induced RAW264.7 cells, read-out: Activity
RAW264.7 [4] = assay: Anti-inflammatory activity in mouse RAW264.7 cells assessed as inhibition of LPS-induced NO production at 1 uM preincubated for 1 hr followed by LPS addition and measured after 24 hrs by Griess reagent-based assay relative to control; assay type: functional
RAW264.7 [5] = assay: Anti-inflammatory activity in mouse RAW264.7 cells assessed as inhibition of LPS-induced NO production preincubated for 1 hr followed by LPS addition and measured after 24 hrs by Griess reagent-based assay; assay type: functional, cell-based
RAW264.7 [6] = assay: Anti-inflammatory activity in mouse RAW264.7 cells assessed as inhibition of LPS-induced PGE2 production at 1 uM preincubated for 1 hr followed by LPS addition and measured after 24 hrs by EIA relative to control; assay type: functional
RAW264.7 [7] = assay: Anti-inflammatory activity in mouse RAW264.7 cells assessed as inhibition of LPS-induced PGE2 production preincubated for 1 hr followed by LPS addition and measured after 24 hrs by EIA; assay type: functional, cell-based
RAW264.7 [8] = assay: Anti-inflammatory activity in mouse RAW264.7 cells assessed as inhibition of LPS-induced PGE2 production at 0.2 uM preincubated for 1 hr followed by LPS addition and measured after 24 hrs by EIA; assay type: functional, cell-based
RAW264.7 [9] = assay: Anti-inflammatory activity in mouse RAW264.7 cells assessed as inhibition of LPS-induced IL-6 production at 1 uM preincubated for 1 hr followed by LPS addition and measured after 24 hrs by EIA relative to control; assay type: functional
RAW264.7 [10] = assay: Anti-inflammatory activity in mouse RAW264.7 cells assessed as inhibition of LPS-induced IL-6 production preincubated for 1 hr followed by LPS addition and measured after 24 hrs by EIA; assay type: functional, cell-based
RAW264.7 [11] = assay: Anti-inflammatory activity in mouse RAW264.7 cells assessed as inhibition of LPS-induced IL-6 production at 0.5 uM preincubated for 1 hr followed by LPS addition and measured after 24 hrs by EIA; assay type: functional, cell-based
RAW264.7 [12] = assay: Anti-inflammatory activity in mouse RAW264.7 cells assessed as inhibition of LPS-induced IL-6 production at 1 to 5 uM preincubated for 1 hr followed by LPS addition and measured after 24 hrs by EIA; assay type: functional, cell-based
RAW264.7 [13] = assay: Effect on IL-6 production in mouse RAW264.7 cells assessed as increase in IL-6 production up to 5 uM measured after 1 hr by EIA; assay type: ADME, cell-based; conditions: raw264.7, 1 h
RAW264.7 [14] = assay: Anti-inflammatory activity in mouse RAW264.7 cells assessed as inhibition of LPS-induced TNFalpha production at 1 uM preincubated for 1 hr followed by LPS addition and measured after 24 hrs by EIA relative to control; assay type: functional
RAW264.7 [15] = assay: Anti-inflammatory activity in mouse RAW264.7 cells assessed as inhibition of LPS-induced TNFalpha production preincubated for 1 hr followed by LPS addition and measured after 24 hrs by EIA; assay type: functional, cell-based
RAW264.7 [16] = assay: Anti-inflammatory activity in mouse RAW264.7 cells assessed as inhibition of LPS-induced TNFalpha production at 0.5 uM preincubated for 1 hr followed by LPS addition and measured after 24 hrs by EIA; assay type: functional, cell-based
RAW264.7 [17] = assay: Effect on TNF-alpha production in mouse RAW264.7 cells assessed as increase in TNFalpha production at up to 5 uM measured after 1 hr by EIA; assay type: ADME, cell-based; conditions: raw264.7, 1 h
RAW264.7 [18] = assay: Anti-inflammatory activity in mouse RAW264.7 cells assessed as inhibition of LPS-induced IL-1beta production at 1 uM preincubated for 1 hr followed by LPS addition and measured after 24 hrs by EIA relative to control; assay type: functional
RAW264.7 [19] = assay: Anti-inflammatory activity in mouse RAW264.7 cells assessed as inhibition of LPS-induced PGE2 production at 10 nM preincubated for 1 hr followed by LPS addition and measured after 24 hrs by EIA relative to control; assay type: functional
RAW264.7 [20] = assay: Anti-inflammatory activity in mouse RAW264.7 cells assessed as remaining LPS-induced NO production at 40 uM preincubated for 1 hr followed by LPS addition and measured after 24 hrs by Griess reagent-based assay relative to control; assay type: functional
RAW264.7 [21] = assay: Anti-inflammatory activity in mouse RAW264.7 cells assessed as inhibition of LPS-induced PGE2 production at 40 nM preincubated for 1 hr followed by LPS addition and measured after 24 hrs by EIA; assay type: functional, cell-based
[22] = molecular target: Mitogen-activated protein kinase 14 (Mus musculus) (UniProt P47811); assay: Inhibition of p38alpha MAPK in LPS-stimulated mouse RAW264.7 cells assessed as reduction in MK2 phosphorylation at 5 uM incubated for 120 mins by Western blot analysis; assay type: cell-based
[23] = molecular target: Mitogen-activated protein kinase 14 (Mus musculus) (UniProt P47811); assay: Inhibition of p38alpha MAPK in LPS-stimulated mouse RAW264.7 cells assessed as reduction in p38alpha MAPK phosphorylation at 5 uM incubated for 60 mins by Western blot analysis; assay type: cell-based
[24] = molecular target: Mitogen-activated protein kinase 14 (Mus musculus) (UniProt P47811); assay: Inhibition of p38alpha MAPK in LPS-stimulated mouse RAW264.7 cells assessed as reduction in MK2 phosphorylation at 5 uM by Western blot analysis; assay type: cell-based; conditions: TDE = time-dependent effect
[25] = molecular target: Mitogen-activated protein kinase 14 (Mus musculus) (UniProt P47811); assay: Inhibition of p38alpha MAPK in LPS-stimulated mouse RAW264.7 cells assessed as reduction in p38alpha MAPK phosphorylation at 4 uM incubated for 60 mins by Western blot analysis; assay type: cell-based
[26] = molecular target: Mitogen-activated protein kinase 14 (Mus musculus) (UniProt P47811); assay: Inhibition of p38alpha MAPK in LPS-stimulated mouse RAW264.7 cells assessed as reduction in p38alpha MAPK phosphorylation incubated for 60 mins by Western blot analysis; assay type: cell-based
[27] = molecular target: Mitogen-activated protein kinase 14 (Mus musculus) (UniProt P47811); assay: Inhibition of p38alpha MAPK in LPS-stimulated mouse RAW264.7 cells assessed as reduction in p38alpha MAPK phosphorylation at 2 uM incubated for 60 mins by Western blot analysis; assay type: cell-based
[28] = molecular target: T1, Mitogen-activated protein kinase 14 (Mus musculus, UniProt P47811); assay: Inhibition of p38alpha MAPK in unstimulated mouse RAW264.7 cells assessed as reduction in p38alpha MAPK phosphorylation at 4 uM incubated for 60 mins by Western blot analysis; assay type: cell-based; conditions: RAW264.7, mouse, 1 h
[29] = molecular target: T1, Mitogen-activated protein kinase 14; assay: Inhibition of p38alpha MAPK in unstimulated mouse RAW264.7 cells assessed as reduction in p38alpha MAPK phosphorylation at 2 uM incubated for 60 mins by Western blot analysis; assay type: cell-based; conditions: raw264.7, 1 h

Sequence of Mitogen-activated protein kinase 14 (Mus musculus) (P47811 whole entry): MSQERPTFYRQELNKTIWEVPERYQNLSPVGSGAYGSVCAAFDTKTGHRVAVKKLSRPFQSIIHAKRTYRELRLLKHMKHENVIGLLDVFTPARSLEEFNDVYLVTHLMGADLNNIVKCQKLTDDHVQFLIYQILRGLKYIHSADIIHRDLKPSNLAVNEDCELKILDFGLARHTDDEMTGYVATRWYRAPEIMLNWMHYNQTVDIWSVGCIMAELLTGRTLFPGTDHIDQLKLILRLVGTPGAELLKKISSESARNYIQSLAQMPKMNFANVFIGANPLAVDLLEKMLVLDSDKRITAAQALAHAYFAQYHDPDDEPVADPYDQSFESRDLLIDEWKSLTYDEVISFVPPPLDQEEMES
T1 sequence (P47811 whole entry): as above

Compound	IC50 (RAW264.7 [5]) [nM]	IC50 (RAW264.7 [7]) [nM]	Activity (RAW264.7 [1])	inhibition (RAW264.7 [2])	viability at 24 h, 1 µM [3] [%]	inhibition at 1 µM (RAW264.7 [4]) [%]	inhibition (RAW264.7 [5])	inhibition at 1 µM (RAW264.7 [6]) [%]	inhibition (RAW264.7 [7])	inhibition (RAW264.7 [8])	inhibition at 1 µM (RAW264.7 [9]) [%]	inhibition (RAW264.7 [10])	inhibition (RAW264.7 [12])	Activity (RAW264.7 [13])	inhibition at 1 µM (RAW264.7 [14]) [%]	inhibition (RAW264.7 [15])	inhibition (RAW264.7 [16])	Activity (RAW264.7 [17])	inhibition at 1 µM (RAW264.7 [18]) [%]	inhibition (RAW264.7 [21])	also measured
COc1cc(NC(=O)c2cccc(-c3cc(=O)c4c(OC)c(OC)c(OC)cc4o3)c2)cc(OC)c1OC	2750	3400	Non-Toxic	inactive	113	48.3	Dose-dependent effect	11.2	Dose-dependent effect	inactive	31.9	Dose-dependent effect	Active	Non-Toxic	28.6	Dose-dependent effect	Active	Non-Toxic	143	–	inhibition (RAW264.7 [11]): Active
CS(=O)(=O)Nc1ccc([N+](=O)[O-])cc1OC1CCCCC1 [NS-398]	–	–	–	–	–	–	–	–	–	–	–	–	–	–	–	–	–	–	–	–	inhibition at 0.01 µM (RAW264.7 [19]): 58%
CC(=N)NCCCC[C@H](N)C(=O)O [L-NIL]	–	–	–	–	–	–	–	–	–	–	–	–	–	–	–	–	–	–	–	–	Activity (RAW264.7 [20]): 29 - 35%

Second part, led by results:

IC50 (RAW264.7 [5]) [nM]	IC50 (RAW264.7 [7]) [nM]	Compound	Activity (RAW264.7 [1])	inhibition (RAW264.7 [2])	viability at 24 h, 1 µM [3] [%]	inhibition at 1 µM (RAW264.7 [4]) [%]	inhibition (RAW264.7 [5])	inhibition at 1 µM (RAW264.7 [6]) [%]	inhibition (RAW264.7 [7])	inhibition (RAW264.7 [8])	inhibition at 1 µM (RAW264.7 [9]) [%]	inhibition (RAW264.7 [10])	inhibition (RAW264.7 [12])	Activity (RAW264.7 [13])	inhibition at 1 µM (RAW264.7 [14]) [%]	inhibition (RAW264.7 [15])	inhibition (RAW264.7 [16])	Activity (RAW264.7 [17])	inhibition at 1 µM (RAW264.7 [18]) [%]	inhibition (RAW264.7 [21])	also measured
–	310	COc1ccccc1C(=O)Nc1cccc(-c2cc(=O)c3c(O)c(OC)c(OC)cc3o2)c1	–	–	90.9	2.62	–	82.8	Dose-dependent effect	–	-9.4	–	–	–	-9.74	–	–	–	41.3	Active	inhibition [22]: Active
–	590	COc1ccccc1C(=O)Nc1ccc(-c2cc(=O)c3c(OC)c(OC)c(OC)cc3o2)cc1	–	–	108	7.04	–	78.8	Dose-dependent effect	–	-50	–	–	–	-51.3	–	–	–	14.5	Active	inhibition [23]: Active; inhibition [24]: Tde
2110	980	COc1cc(NC(=O)c2cccc(-c3cc(=O)c4c(O)c(OC)c(OC)cc4o3)c2)cc(OC)c1OC	Non-Toxic	Active	144	44.8	Dose-dependent effect	35.7	Dose-dependent effect	inactive	53.5	Dose-dependent effect	Active	Non-Toxic	29.4	Dose-dependent effect	Active	Non-Toxic	41	–	inhibition [25]: 100%; inhibition [26]: Dose-dependent effect; inhibition [27]: Active; inhibition at 4 µM [28]: 100%; inhibition (INH) [29]: Active
